Laboratory results published in US20250276962A1, “CONTRACEPTIVE COMPOUNDS AND METHODS” (Regents of the University of Minnesota, priority 2021, published 2025).
Where “and” joins values, the source holds several entries; their conditions need not be identical. Identical values can stand only once. Entries after “also recorded” stand apart in the source; their conditions may differ.

Legend:
[1] = Solubility in PBS at pH 7.4; format: physicochemical
[2] = test system: male cynomolgus macaques; test: Cynomolgus macaque study with sperm counts per ejaculate as readout; format: in vivo
Method: Sperm counts were assessed weekly or bi-weekly in fresh semen samples obtained with electroejaculation. 3 macaques were orally dosed with 2.5 mg/kg, which is the dose equivalent to 10 mg/kg in mouse based on body surface area. […] The animals are now in recovery to assess reversibility (data not shown). […] After dosing for another week at 7.5 mg/kg/day, individual sperm counts were 132, 38 and 12×10^6 showing efficacy in all 3 animals. Since day 38, the animals have been in recovery to assess reversibility. Four weeks after the animals received the last dose, individual sperm counts were 297, 71 and 300×10^6 showing 50% reversibility in animal #1, 65% reversibility in animal #2 and 100% reversibility in animal #3.

[3] = test system: male Sprague-Dawley rats; test: Testis histopathology after 14-day dosing, rat; format: in vivo; conditions: male SD rats, daily doses for 14 days (25 mg/kg/day in FIG. 11)
Method: 2 male Beagle dogs and 5 male SD rats were dosed with 25 mg/kg/day for 14 days. On Day 15, animals were euthanized to harvest organs for histopathology. Shown are representative images. See Example 19.

[4] = Single dose PK, mouse; format: in vivo
Text: Single dose pharmacokinetics (PK) studies at therapeutic dose levels: Presented are area under the curve (AUC) values to better compare exposure levels between species.
[…]. […] This value serves as the basis to calculate multiples over efficacy across species.

[5] = Repeat dose PK (14 days), dog; format: in vivo; conditions: male, Beagle, plasma, oral, Day 14
Method: […]. In this study, AUC0-inf was measured.

[6] = test system: 48 potential off-targets; test: Off-target screening, agonist and antagonist activity against 48 potential off-targets; conditions: 10 uM; against 39 of 48 targets (including glucocorticoid and androgen receptors)
[7] = biological target: KVLQT(7.1)/mink (cardiac potassium ion channel) (Homo sapiens, UniProt P51787); test: Off-target screening, KVLQT(7.1)/mink; format: cell-based
[8] = test system: KCNQ1; test: in vitro; format: cell-based
[9] = biological target: cannabinoid receptor 2 (CB2) (Homo sapiens, UniProt P34972); test: Off-target screening, CB2; format: cell-based
[10] = biological target: NaV1.5 (Homo sapiens, UniProt Q14524); test: Off-target screening, NaV1.5; format: cell-based; conditions: 10 μM
[11] = biological target: NaV1.5 (cardiac sodium ion channel) (Homo sapiens, UniProt Q14524); test: Off-target screening, NaV1.5; format: cell-based
[12] = biological target: monoamine oxidase A (MAO-A) (Homo sapiens, UniProt P21397); test: Off-target screening, MAO-A; format: biochemical
[13] = biological target: cyclooxygenase 1 (COX1) (Homo sapiens, UniProt P23219); test: Off-target screening, COX1; format: biochemical
[14] = Stability in monkey hepatocytes; format: in vitro ADME; conditions: read-out: Half-life (T1/2) Hepatocytes (Phase I and Phase II metabolism) (converted)
[15] = Stability in rat liver microsomes; format: in vitro ADME; conditions: read-out: Half-life (T1/2) Liver microsomes (Phase I metabolism)
[16] = Stability in dog liver microsomes; format: in vitro ADME; conditions: read-out: Half-life (T1/2) Liver microsomes (Phase I metabolism)
[17] = test system: male cynomolgus macaques; conditions: cynomolgus monkey, in vivo
[18] = not given; remark: listed apart in the source
[19] = physchem; conditions: pH 7.4
[20] = Distribution assay, plasma levels after oral dosing; conditions: CD-1 mice, 10 mg/kg oral
Method: Testes and brain were then harvested. Resulting plasma and tissue were frozen at <−20° C. until analysis by LC/MS/MS.

Sequence of monoamine oxidase A (MAO-A) (P21397 whole entry, species assumed): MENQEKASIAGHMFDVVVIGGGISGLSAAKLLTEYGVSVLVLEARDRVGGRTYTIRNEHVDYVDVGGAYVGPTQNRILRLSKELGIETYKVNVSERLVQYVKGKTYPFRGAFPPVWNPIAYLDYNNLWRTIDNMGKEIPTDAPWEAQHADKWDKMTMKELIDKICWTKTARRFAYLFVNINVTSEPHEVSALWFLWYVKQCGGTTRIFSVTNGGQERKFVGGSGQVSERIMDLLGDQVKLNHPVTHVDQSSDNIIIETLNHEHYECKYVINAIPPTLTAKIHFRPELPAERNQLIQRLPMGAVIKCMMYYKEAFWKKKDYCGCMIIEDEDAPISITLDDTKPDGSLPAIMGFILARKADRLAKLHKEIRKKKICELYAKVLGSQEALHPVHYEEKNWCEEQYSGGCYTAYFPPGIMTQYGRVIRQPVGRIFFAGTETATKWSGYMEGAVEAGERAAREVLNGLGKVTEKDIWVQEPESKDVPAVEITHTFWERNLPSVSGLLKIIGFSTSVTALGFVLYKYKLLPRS
Sequence of cyclooxygenase 1 (COX1) (P23219 24-599, species assumed): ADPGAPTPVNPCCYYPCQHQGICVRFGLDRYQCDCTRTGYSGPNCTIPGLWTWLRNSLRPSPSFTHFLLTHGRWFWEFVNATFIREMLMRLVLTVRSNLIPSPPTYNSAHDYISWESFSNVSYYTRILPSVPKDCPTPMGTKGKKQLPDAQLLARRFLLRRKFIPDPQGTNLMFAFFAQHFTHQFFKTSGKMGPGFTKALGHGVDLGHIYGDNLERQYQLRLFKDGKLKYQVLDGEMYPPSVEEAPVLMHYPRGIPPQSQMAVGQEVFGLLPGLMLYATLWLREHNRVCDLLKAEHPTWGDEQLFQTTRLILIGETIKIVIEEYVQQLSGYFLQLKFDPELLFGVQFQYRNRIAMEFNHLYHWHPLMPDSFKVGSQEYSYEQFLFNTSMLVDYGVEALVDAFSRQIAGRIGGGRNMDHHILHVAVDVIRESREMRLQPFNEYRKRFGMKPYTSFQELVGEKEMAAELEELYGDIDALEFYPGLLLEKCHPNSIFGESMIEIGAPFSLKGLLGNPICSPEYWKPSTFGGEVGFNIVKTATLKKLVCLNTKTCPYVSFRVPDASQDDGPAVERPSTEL
Sequence of cannabinoid receptor 2 (CB2) (P34972 whole entry, species assumed): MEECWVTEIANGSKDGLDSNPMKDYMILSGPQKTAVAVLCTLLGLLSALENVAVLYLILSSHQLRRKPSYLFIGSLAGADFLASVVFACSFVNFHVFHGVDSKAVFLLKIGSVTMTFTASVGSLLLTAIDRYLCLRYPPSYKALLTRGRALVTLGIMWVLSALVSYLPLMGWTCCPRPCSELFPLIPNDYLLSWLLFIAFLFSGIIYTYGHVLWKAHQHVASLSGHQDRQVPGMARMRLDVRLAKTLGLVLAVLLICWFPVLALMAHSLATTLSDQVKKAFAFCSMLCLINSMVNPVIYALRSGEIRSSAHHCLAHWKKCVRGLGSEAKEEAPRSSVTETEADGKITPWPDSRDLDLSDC
Sequence of NaV1.5 (Q14524 whole entry): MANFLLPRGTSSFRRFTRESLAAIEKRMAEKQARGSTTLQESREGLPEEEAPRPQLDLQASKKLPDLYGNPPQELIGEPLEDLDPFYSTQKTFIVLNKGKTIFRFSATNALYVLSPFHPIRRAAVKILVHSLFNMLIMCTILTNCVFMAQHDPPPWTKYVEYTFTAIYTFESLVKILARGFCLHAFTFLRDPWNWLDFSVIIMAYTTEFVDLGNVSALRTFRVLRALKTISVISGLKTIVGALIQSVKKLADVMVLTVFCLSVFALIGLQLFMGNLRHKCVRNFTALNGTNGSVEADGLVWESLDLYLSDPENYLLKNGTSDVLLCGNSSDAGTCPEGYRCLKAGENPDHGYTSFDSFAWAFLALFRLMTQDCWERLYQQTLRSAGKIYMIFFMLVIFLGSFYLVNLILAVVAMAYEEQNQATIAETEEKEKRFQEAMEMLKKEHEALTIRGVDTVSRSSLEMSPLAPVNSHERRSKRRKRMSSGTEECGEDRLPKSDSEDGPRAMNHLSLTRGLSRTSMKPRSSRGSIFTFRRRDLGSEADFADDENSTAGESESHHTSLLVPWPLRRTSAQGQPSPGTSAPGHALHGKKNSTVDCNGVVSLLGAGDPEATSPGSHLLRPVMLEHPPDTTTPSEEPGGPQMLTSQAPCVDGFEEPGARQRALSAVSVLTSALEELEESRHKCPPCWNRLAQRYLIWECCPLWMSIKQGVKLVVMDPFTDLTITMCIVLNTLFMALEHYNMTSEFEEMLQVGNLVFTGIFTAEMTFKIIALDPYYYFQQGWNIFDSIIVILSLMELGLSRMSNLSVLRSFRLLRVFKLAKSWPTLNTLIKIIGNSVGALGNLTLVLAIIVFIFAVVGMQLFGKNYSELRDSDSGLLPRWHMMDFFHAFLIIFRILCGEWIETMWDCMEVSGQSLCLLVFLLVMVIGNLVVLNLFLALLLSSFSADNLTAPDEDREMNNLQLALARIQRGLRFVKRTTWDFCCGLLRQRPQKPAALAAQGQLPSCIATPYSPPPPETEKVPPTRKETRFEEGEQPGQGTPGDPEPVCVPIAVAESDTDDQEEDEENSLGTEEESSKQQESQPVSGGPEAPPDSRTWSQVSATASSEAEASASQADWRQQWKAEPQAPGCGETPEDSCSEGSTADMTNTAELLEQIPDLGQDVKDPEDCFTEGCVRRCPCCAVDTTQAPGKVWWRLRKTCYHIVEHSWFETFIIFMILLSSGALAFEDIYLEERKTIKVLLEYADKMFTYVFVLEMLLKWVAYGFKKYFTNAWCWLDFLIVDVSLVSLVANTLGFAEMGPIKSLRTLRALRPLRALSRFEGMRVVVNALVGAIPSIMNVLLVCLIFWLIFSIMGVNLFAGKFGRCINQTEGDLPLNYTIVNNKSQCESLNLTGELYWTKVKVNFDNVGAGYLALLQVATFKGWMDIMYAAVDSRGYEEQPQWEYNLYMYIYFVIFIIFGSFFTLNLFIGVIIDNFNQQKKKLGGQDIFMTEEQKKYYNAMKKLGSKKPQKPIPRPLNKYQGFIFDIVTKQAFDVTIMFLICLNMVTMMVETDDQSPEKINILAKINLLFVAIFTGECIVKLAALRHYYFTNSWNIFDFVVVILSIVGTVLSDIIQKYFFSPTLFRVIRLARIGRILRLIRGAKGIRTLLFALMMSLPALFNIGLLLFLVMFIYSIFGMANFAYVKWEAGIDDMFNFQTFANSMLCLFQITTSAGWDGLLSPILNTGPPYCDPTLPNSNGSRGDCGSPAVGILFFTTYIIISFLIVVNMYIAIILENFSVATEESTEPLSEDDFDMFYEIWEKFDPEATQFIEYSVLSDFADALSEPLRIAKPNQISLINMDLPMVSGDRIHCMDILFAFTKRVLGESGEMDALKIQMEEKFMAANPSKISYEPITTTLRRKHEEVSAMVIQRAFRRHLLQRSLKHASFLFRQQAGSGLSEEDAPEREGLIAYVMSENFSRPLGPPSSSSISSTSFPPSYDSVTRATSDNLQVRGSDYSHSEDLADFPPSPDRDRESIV
Sequence of KVLQT(7.1)/mink (cardiac potassium ion channel) (P51787 whole entry): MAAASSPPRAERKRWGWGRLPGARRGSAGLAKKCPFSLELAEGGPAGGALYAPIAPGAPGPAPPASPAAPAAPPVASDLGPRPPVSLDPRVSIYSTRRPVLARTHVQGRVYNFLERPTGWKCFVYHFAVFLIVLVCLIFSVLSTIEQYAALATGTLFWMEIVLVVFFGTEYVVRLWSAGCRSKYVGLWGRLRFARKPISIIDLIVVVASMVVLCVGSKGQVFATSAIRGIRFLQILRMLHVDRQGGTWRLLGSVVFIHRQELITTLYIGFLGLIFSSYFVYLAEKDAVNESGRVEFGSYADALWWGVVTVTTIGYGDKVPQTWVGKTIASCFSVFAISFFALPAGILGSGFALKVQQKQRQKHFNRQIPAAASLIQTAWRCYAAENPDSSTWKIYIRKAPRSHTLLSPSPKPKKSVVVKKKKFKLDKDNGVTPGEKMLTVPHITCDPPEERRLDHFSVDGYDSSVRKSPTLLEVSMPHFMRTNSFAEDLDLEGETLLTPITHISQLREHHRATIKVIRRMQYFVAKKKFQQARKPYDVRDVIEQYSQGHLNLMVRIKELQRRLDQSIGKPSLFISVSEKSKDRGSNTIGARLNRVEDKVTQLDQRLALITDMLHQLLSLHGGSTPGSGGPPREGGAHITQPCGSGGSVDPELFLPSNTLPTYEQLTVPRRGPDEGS

Which “solubility” value [1] does the source give for `Cc1ccc(C2=CC(C)(C)Oc3ccc(-c4ccc(-c5ccc(C(=O)[O-])cc5)[nH]4)cc32)cc1.[Na+]` [Example 1, Sodium 4-(5-(2,2-dimethyl-4-(p-tolyl)-2H-chromen-6-yl)-1H-pyrrol-2-yl)benzoate] here?
Its value is 78.57 µM.

And the “Individual sperm counts per ejaculate” value ([2]; second cohort (initial 598, 203 and 277), 5 mg/kg/day, after 14 days, 5 mg/kg/day)?
The value was 377 ×10^6 and 62 ×10^6 and 134 ×10^6.

And the “Individual sperm counts per ejaculate” value ([2]; second cohort, 5 mg/kg/day, after 30 days, 5 mg/kg/day)?
Its value is 262 ×10^6 and 28 ×10^6 and 70 ×10^6.

What about the “Individual sperm counts per ejaculate” value ([2]; second cohort, four weeks after the last dose) of the same compound?
The value was 297 ×10^6 and 71 ×10^6 and 300 ×10^6.

What about the “Reversibility of sperm count reduction” value ([2]; second cohort, four weeks after the last dose, animal #1, #2, #3) of the same compound?
The value was 50% and 65% and 100%.

And the Testis histopathology [3]?
The Testis histopathology was “degeneration of the germinal epithelium; also recorded: impairs the germinal epithelium”.

What about the AUC0-inf in plasma ([4]; male CD-1 mice, single 10 mg/kg dose) of the same compound?
The AUC0-inf in plasma was 6,681 h*(ng/mL).

And the AUC(0-inf) ([4]; male, CD-1, plasma, Mouse 10 mg/kg, single dose)?
Its AUC(0-inf) is 6680 ng·h/mL.

And the AUC(0-t) ([4]; male, CD-1, plasma, Mouse 10 mg/kg, read-out: AUC0-48)?
The AUC(0-t) was 6580 ng·h/mL.

And the AUC(0-inf) ([5]; Dog 25 mg/kg/day)?
Its AUC(0-inf) is 752 µg·h/mL.

And the AUC(0-inf) ([5]; Dog 100 mg/kg/day)?
The AUC(0-inf) was 14100 µg·h/mL.

And the “Agonist or antagonist activity against off-targets” value [6]?
The value was “Example 1 had agonist or antagonist activity of <10% against 39 of them (including”.

What about the inhibition at 10 µM [7] of the same compound?
The inhibition at 10 µM was 14.9%.

What about the inhibition at 10 µM [8] of the same compound?
The inhibition at 10 µM was 22.8%.

What about the IC50 [9] of the same compound?
Its IC50 is 23.3 µM.

And the inhibition at 10 µM ([9]; 10 μM)?
The inhibition at 10 µM was 34.3%.

What about the inhibition at 10 µM [10] of the same compound?
Its inhibition at 10 µM is 37.4%.

And the IC50 [11]?
Its IC50 is 8.8 µM.

What about the IC50 [12] of the same compound?
Its IC50 is 24.6 µM.

What about the inhibition at 10 µM ([12]; 10 μM) of the same compound?
Its inhibition at 10 µM is 45.8%.

And the IC50 [13]?
The IC50 was 1410 nM.

What about the inhibition at 10 µM ([13]; read-out: Inhibition of COX1) of the same compound?
The inhibition at 10 µM was 78.9%.

What about the half-life [14] of the same compound?
Its half-life is 192 min.

And the half-life [15]?
The half-life was > 1390 min.

What about the half-life [16] of the same compound?
Its half-life is > 1390 min.

What about the “Repeat dose observations (behaviour, body weight, CBC, clinical chemistry)” value [17] of the same compound?
The value was “behaved normally and had no substantial changes in body weight, CBC parameters or clinical chemistry parameters”.

What about the “Half-life (T1/2) Liver microsomes (Phase I metabolism)” value (human) of the same compound?
The value was 9.5 h.

And the “CLint (μL/min/mg protein)” value (pooled human liver microsomes)?
Its value is 2.43 μL/min/mg protein.

And the “T1/2” value (pooled human liver microsomes)?
The value was 569.64 min.

And the “Half-life (T1/2) Hepatocytes (Phase I and Phase II metabolism)” value ([18]; human)?
Its value is 8.7 h.

What about the “In vitro Clint (μL/min/10^6 cells)” value ([18]; human hepatocytes) of the same compound?
The value was 2.65 μL/min/10^6 cells.

And the “In vitro T1/2” value ([18]; human hepatocytes)?
Its value is 522.36 min.

What about the logD [19] of the same compound?
The logD was 3.5.

And the “Plasma level at 48 hours” value [20]?
Its value is 12.9 nM.
